Assay [1] deals with Phosphorylated Ribosomal Protein S6 (RPS6) in THP-1 cells. Put plainly: THP-1 RPS6 ELISA Assay. The format is cell-based. The note with it: Homo sapiens; serum starved THP-1 cells, 2 hours with compound, 10 nM MCP-1 for 15 minutes, Phospho-RPS6 ELISA; read-out: PI3Kγ_THP1_RPS6_ELISA IC50. In short, it runs like this:
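Serum-starved THP-1 cells (2×10^5/well, RPMI) preincubated with compound 2 h at 37° C, then stimulated with 10 nM MCP-1 for 15 min. Lysates assayed by phospho-RPS6 ELISA, absorbance 450 nm (540 nm correction); IC50 from percent inhibition versus log concentration.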
(ELISA stands for enzyme-linked immunosorbent assay.)

Assay [2] has as its target PI3Kγ (p110γ) Recombinant Human Protein (Homo sapiens (Human), UniProt P48736). Put plainly: PI3K-γ Scintillation Proximity Assay. The note with it: 20 μM PIP2, 2 μM ATP, 13 nM PI3Kγ, 120 min, room temperature. The format is biochemical. The method, boiled down: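 Recombinant human p110γ (13 nM) phosphorylated 20 μM PIP2 with 2 μM ATP plus [γ-33P]ATP in 20 mM MOPS pH 6.7, 10 mM MgCl2, 5 mM DTT, 0.03% CHAPS, 2% DMSO, 120 min at room temperature. Radiolabelled product was captured on WGA SPA beads and counted. IC50 came from curves of percent solvent-control activity.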

Assay [3] deals with PI3Kδ (p110δ/p85α) Recombinant Human Protein (Homo sapiens (Human), UniProt O00329). The assay is described as follows: PI3Kδ Scintillation Proximity Assay. The format is biochemical. The note with it: 20 μM PIP2, 2 μM ATP, 3.4 nM PI3Kδ, 120 min, room temperature. The method, boiled down: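 Kinase reaction run at room temperature in 20 mM MOPS pH 6.7, 10 mM MgCl2, 5 mM DTT, 0.03% CHAPS with 20 μM PIP2, 2 μM ATP plus [γ-33P]ATP, 3.4 nM enzyme, 2% DMSO; 120 min. Quenched with WGA SPA beads/EDTA, counted by scintillation; IC50 from % solvent-control activity vs log concentration.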
Sequence of PI3Kδ (p110δ/p85α) Recombinant Human Protein (O00329 whole entry): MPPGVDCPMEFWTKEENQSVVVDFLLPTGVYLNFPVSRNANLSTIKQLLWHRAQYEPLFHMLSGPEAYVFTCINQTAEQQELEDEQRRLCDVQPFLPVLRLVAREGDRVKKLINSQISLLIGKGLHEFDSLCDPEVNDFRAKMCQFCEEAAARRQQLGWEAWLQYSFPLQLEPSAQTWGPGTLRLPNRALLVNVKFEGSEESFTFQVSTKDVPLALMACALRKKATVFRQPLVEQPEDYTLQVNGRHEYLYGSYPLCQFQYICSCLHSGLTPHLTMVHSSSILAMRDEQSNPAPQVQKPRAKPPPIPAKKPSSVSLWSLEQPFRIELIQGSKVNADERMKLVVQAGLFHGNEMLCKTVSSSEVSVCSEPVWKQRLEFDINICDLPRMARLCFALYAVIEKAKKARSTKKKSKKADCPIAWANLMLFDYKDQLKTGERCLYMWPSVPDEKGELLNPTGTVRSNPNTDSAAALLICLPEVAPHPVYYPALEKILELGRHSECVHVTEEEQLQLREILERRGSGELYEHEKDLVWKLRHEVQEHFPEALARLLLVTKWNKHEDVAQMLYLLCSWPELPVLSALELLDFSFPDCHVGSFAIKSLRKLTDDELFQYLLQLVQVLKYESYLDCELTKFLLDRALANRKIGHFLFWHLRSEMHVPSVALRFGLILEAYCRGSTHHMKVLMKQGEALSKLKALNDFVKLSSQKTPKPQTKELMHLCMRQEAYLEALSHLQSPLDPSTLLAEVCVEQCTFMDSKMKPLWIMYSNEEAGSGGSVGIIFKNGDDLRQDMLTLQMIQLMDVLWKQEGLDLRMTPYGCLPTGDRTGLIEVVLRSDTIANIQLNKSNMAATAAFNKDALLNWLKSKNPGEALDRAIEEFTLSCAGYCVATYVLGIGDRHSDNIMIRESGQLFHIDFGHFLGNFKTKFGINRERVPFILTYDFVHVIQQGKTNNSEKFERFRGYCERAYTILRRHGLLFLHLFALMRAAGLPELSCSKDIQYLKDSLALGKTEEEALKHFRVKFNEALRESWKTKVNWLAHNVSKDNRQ
Sequence of PI3Kδ (p110δ/p85α) Recombinant Human Protein (P27986 whole entry partner): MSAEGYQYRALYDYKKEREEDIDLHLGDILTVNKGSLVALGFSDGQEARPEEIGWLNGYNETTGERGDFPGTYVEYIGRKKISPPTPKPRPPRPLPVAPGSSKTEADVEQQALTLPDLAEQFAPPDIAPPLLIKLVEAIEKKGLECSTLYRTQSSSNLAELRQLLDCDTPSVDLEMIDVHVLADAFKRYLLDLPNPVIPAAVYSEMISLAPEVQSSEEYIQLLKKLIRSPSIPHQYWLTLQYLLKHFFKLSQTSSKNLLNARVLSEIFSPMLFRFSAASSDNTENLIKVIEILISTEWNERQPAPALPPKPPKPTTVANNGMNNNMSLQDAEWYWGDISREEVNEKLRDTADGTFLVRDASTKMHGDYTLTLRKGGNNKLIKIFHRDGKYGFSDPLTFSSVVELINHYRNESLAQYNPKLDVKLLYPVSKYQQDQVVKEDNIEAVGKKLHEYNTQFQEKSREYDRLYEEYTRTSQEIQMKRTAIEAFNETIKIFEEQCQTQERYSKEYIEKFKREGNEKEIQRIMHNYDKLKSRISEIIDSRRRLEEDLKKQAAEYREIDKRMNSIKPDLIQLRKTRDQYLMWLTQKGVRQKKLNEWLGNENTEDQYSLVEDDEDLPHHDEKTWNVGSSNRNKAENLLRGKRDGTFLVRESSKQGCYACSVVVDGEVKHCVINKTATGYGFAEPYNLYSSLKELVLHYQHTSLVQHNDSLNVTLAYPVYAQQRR

Where a name gives a salt, the structure may show the parent alone.

Broadly, the IC50 is the concentration needed to halve the response being measured.

Sequence of PI3Kγ (p110γ) Recombinant Human Protein (P48736 whole entry): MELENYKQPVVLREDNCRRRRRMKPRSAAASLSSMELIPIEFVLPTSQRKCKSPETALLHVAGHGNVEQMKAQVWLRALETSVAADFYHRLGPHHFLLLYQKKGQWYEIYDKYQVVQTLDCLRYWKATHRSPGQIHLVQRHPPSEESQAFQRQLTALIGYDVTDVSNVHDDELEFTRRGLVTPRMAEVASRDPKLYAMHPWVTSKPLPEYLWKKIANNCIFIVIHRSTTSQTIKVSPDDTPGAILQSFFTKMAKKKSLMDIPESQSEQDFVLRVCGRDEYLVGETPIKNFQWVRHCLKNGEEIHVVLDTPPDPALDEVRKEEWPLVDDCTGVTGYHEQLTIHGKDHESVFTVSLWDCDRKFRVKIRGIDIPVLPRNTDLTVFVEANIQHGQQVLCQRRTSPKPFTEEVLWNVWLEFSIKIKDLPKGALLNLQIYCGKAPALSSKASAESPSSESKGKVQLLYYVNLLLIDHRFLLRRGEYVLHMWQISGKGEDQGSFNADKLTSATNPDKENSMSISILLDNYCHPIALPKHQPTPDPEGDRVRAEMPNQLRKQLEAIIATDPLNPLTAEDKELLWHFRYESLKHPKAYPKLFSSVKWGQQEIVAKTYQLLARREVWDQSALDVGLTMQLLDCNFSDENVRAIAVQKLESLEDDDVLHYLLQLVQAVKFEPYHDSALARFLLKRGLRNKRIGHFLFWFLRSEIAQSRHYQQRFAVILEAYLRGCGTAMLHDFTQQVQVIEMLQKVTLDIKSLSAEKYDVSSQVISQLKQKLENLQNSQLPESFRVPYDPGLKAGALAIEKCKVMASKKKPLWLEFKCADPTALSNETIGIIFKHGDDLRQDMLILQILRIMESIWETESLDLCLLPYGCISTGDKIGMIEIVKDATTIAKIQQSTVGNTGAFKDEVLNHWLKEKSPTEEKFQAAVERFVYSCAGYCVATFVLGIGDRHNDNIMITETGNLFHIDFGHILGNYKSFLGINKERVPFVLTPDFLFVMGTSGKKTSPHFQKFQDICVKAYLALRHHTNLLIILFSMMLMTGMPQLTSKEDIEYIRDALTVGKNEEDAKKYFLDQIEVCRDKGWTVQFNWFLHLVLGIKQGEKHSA

As to `Cc1ccc(S(=O)(=O)NC23CCC(C#N)(C2)C3)cc1-c1cnc(N)c(-c2cn(C)nc2C)n1` [Example 11, 3-(5-Amino-6-(1,3-dimethyl-1H-pyrazol-4-yl)pyrazin-2-yl)-N-(4-cyanobicyclo[2.1.1]hexan-1-yl)-4-methylbenzensulfonamide trifluoroacetate salt], the IC50 was at most 0.5 µM in assay [1], at most 0.1 µM in assay [2] and at most 0.5 µM in assay [3].

Consider `Cc1ccc(S(=O)(=O)NC23CNC(C2)C3)cc1-c1cnc(N)c(-c2ncn(C)n2)n1` [Example 57, 3-(5-Amino-6-(1-methyl-1H-1,2,4-triazol-3-yl)pyrazin-2-yl)-N-(2-azabicyclo[2.1.1]hexan-4-yl)-4-methylbenzenesulfonamide trifluoroacetate salt], for which the figures for the IC50 in assay [1], in assay [2] and in assay [3] were at most 0.5 µM, at most 0.1 µM and at most 0.1 µM, respectively.

Source of the values: patent US11306079B2, “3-(5-amino-pyrazin-2-yl)-benzenesulfonamide derivatives and related compounds as PI3K-gamma kinase inhibitors” (Incyte Corporation, priority 2017, dated 2022).
